{"source": "patent US4156777A", "about": "“Process for producing glucopyranose-nitrosourea compounds and novel compounds included therein” (Tokyo Tanabe Company, Limited, priority 1977, dated 1979)", "key": {"[1]": {"experiment": "Absorption and excretion of 14C-labelled compounds", "assay_type": "in vivo, rats", "conditions": "for dose excreted in expiration: within 24 hours", "description": "The carbon atom at the 2-position of the chloroethyl group (i.e. ClCH2 CH2 -) of 6DCNU and 6MCαG was labelled with radioactive ^14 C, and the absorption and excretion of these compounds were tested using rats."}, "[2]": {"conditions": "known compounds, generally seen; cited from earlier work"}, "[3]": {"test_system": "leukemia L-1210", "experiment": "Antitumor activity against leukemia L-1210 implanted in BDF1 mice (ILS, 60 days survivors)", "assay_type": "in vivo", "text": "Test compounds were given to BDF1 mice 24 hrs after implantation of 10^6 cells of leukemia L-1210 in each animal, through single intraperitoneal administration, intraperitoneal administration for 5 successive days, single oral administration or oral administration for 5 successive days, whereupon the increase in life span (referred to as \"ILS\") and number of 60 days survivors of test animals were estimated, said test of antitumor activity being that according to the method of the National Cancer Center, Tokyo [A. Hoshi et al: Farmashia, 9 (1973), 464]. In the tests, the compounds were dissolved in physiological saline solution just before administration.\n^a i.p.: intraperitoneal administration p.o: oral administration\nD1 : single administration D1~5 : administration for 5\n^b percentage calculated from mean survival time over control\n^c survivors/six animals"}, "[4]": {"experiment": "Acute toxicity (LD50)", "assay_type": "in vivo, male Wister rats", "conditions": "rat, in vivo, after 1 week", "description": "Test compounds were dissolved in physiological saline solution just before their dosage and administered to male Wister rats, intraperitoneally, intravenously and orally. After 1 week, the LD50 of each compound was calculated from the mortality of the test animals by the Lichfield-Wilcoxon Method.\ni.v.: intravenous administration"}, "[5]": {"experiment": "Diabetogenic activity (blood glucose concentration after intravenous administration)", "assay_type": "in vivo, male Wister rats", "description": "40-96 mg/kg of the test compounds were administered intravenously to starved male Wister rats weighing 240-260 g each, and the blood glucose concentrations of the test animals were estimated by the glucose exidase method [L. L. Saloman et al: Anal. Chem., 31 (1959), 453], in which test the compounds were dissolved in physiological saline solution just before administration. […]"}, "[6]": {"experiment": "Effect on respiration, blood pressure, heart rate and electrocardiogram", "assay_type": "in vivo, Beagle dogs", "conditions": "dog, in vivo, iv; injected into brachial veins, anesthetized Beagle dogs; read-out: maximum dosage not effected on respiration, blood pressure, heart rate and electrocardiogram", "description": "Beagle dogs of both sexes weighing about 10 kg were anesthetized with pentobarbital sodium (30 mg/kg, i.v.), and immobilized in the supine position. Test compounds dissolved in physiological saline solution were injected into the brachial veins of the animals and the arteries at cannulated positions were treated with heparin sodium as anticoagulant.\nThe respiration rate of each animal was estimated with a respirometer (Nihonkohden, RP-3) through a tracheal cannula, the blood pressure with an electro-haemodynamometer (Nihonkohden, MP-4T) attached surgically to the femoral artery, and the heart rate with a pulse-rate tachometer (Nihonkohden, RT-2) through the trigger pulse of the blood pressure."}, "[7]": {"experiment": "Solubility in water at 25° C.", "assay_type": "physicochemical", "conditions": "amount soluble in 1 ml water at 25° C."}}}
{"smiles": "O=NN(C[14CH2]Cl)C(=O)NC[C@H]1OC(O)[C@H](O)[C@@H](O)[C@@H]1O", "note": "(stereo partly drawn) [6DCNU-^14 C]", "values": [{"measurement": "dose excreted in urine", "setting": "[1]; within 12 hours after the dose", "result": "65-70%"}, {"measurement": "dose excreted in expiration", "setting": "[1]", "result": "3-5%"}, {"measurement": "dose excreted in faeces", "setting": "[1]; within 72 hours", "result": "10-15%"}, {"measurement": "dose excreted in urine", "setting": "[1]; within 72 hours after the dose", "result": "75-80%"}]}
{"smiles": "CO[C@H]1O[C@H](CNC(=O)N(C[14CH2]Cl)N=O)[C@@H](O)[C@H](O)[C@H]1O", "note": "[6MCαG-^14 C]", "values": [{"measurement": "dose excreted in urine", "setting": "[1]; within 12 hours after the dose", "result": "50-60%"}, {"measurement": "dose excreted in expiration", "setting": "[1]", "result": "3-4%"}, {"measurement": "dose excreted in faeces", "setting": "[1]; within 96 hours", "result": "5-6%"}, {"measurement": "dose excreted in urine", "setting": "[1]; within 96 hours after the dose", "result": "80-90%"}]}
{"smiles": "O=NN(CCCl)C(=O)N[C@H]1C(O)O[C@H](CO)[C@@H](O)[C@@H]1O", "note": "(stereo partly drawn) [DCNU, 1-(2-chloroethyl)-3-(D-glucopyranos-2-yl)-1-nitrosourea]", "values": [{"measurement": "diabetogenic activity, decreasing order", "setting": "[2]", "result": "SZ>DCNU>GANU> 2MCαG≈6MCαG"}, {"measurement": "ILS", "setting": "[3]; 1.6 mg/kg/day, i.p. D1~5", "result": "> 143", "unit": "%"}, {"measurement": "Survivors (60 days)", "setting": "[3]; 1.6 mg/kg/day, i.p. D1~5", "result": "1/6"}, {"measurement": "ILS", "setting": "[3]; 1.6 mg/kg/day, p.o. D1~5", "result": -10, "unit": "%"}, {"measurement": "ILS", "setting": "[3]; 3.2 mg/kg/day, i.p. D1~5", "result": "> 407", "unit": "%"}, {"measurement": "Survivors (60 days)", "setting": "[3]; 3.2 mg/kg/day, i.p. D1~5", "result": "3/6"}, {"measurement": "ILS", "setting": "[3]; 3.2 mg/kg/day, p.o. D1~5", "result": 6, "unit": "%"}, {"measurement": "ILS", "setting": "[3]; 4.5 mg/kg/day, i.p. D1~5", "result": "> 406", "unit": "%"}, {"measurement": "Survivors (60 days)", "setting": "[3]; 4.5 mg/kg/day, i.p. D1~5", "result": "3/6"}, {"measurement": "ILS", "setting": "[3]; 6.3 mg/kg/day, i.p. D1", "result": "> 265", "unit": "%"}, {"measurement": "Survivors (60 days)", "setting": "[3]; 6.3 mg/kg/day, i.p. D1", "result": "3/6"}, {"measurement": "ILS", "setting": "[3]; 6.3 mg/kg/day, i.p. D1~5", "result": "> 622", "unit": "%"}, {"measurement": "Survivors (60 days)", "setting": "[3]; 6.3 mg/kg/day, i.p. D1~5", "result": "5/6"}, {"measurement": "ILS", "setting": "[3]; 6.3 mg/kg/day, p.o. D1~5", "result": 13, "unit": "%"}, {"measurement": "ILS", "setting": "[3]; 9.0 mg/kg/day, i.p. D1~5", "result": "> 153", "unit": "%"}, {"measurement": "Survivors (60 days)", "setting": "[3]; 9.0 mg/kg/day, i.p. D1~5", "result": "1/6"}, {"measurement": "ILS", "setting": "[3]; 12.5 mg/kg/day, i.p. D1", "result": "> 418", "unit": "%"}, {"measurement": "Survivors (60 days)", "setting": "[3]; 12.5 mg/kg/day, i.p. D1", "result": "4/6"}, {"measurement": "ILS", "setting": "[3]; 12.5 mg/kg/day, p.o. D1~5", "result": 13, "unit": "%"}, {"measurement": "ILS", "setting": "[3]; 25.0 mg/kg/day, i.p. D1", "result": "> 315", "unit": "%"}, {"measurement": "Survivors (60 days)", "setting": "[3]; 25.0 mg/kg/day, i.p. D1", "result": "3/6"}, {"measurement": "ILS", "setting": "[3]; 25.0 mg/kg/day, p.o. D1~5", "result": 13, "unit": "%"}, {"measurement": "ILS", "setting": "[3]; 50.0 mg/kg/day, i.p. D1", "result": -10, "unit": "%"}, {"measurement": "ILS", "setting": "[3]; 50.0 mg/kg/day, p.o. D1~5", "result": 15, "unit": "%"}, {"measurement": "ILS", "setting": "[3]; 100.0 mg/kg/day, p.o. D1~5", "result": 18, "unit": "%"}, {"measurement": "ILS", "setting": "[3]; 200.0 mg/kg/day, p.o. D1~5", "result": -23, "unit": "%"}, {"measurement": "antitumor activity in oral administration, in words", "setting": "[3]; oral administration", "result": "no antitumor activity in oral administration"}, {"measurement": "LD50 at 168 h", "setting": "[4]; ip", "result": 44, "unit": "mg/kg"}, {"measurement": "LD50 at 168 h", "setting": "[4]; po", "result": 1150, "unit": "mg/kg"}, {"measurement": "Blood Glucose Concentration", "setting": "[5]; 40 mg/kg i.v., 0 hr after treatment", "result": 67.5, "unit": "mg/dL"}, {"measurement": "Blood Glucose Concentration", "setting": "[5]; 40 mg/kg i.v., 2 hr after treatment", "result": 87.2, "unit": "mg/dL"}, {"measurement": "Blood Glucose Concentration", "setting": "[5]; 40 mg/kg i.v., 4 hr after treatment", "result": 74.6, "unit": "mg/dL"}, {"measurement": "Blood Glucose Concentration", "setting": "[5]; 40 mg/kg i.v., 7 hr after treatment", "result": 85.3, "unit": "mg/dL"}, {"measurement": "Blood Glucose Concentration", "setting": "[5]; 40 mg/kg i.v., 10 hr after treatment", "result": 110.2, "unit": "mg/dL"}, {"measurement": "Blood Glucose Concentration", "setting": "[5]; 40 mg/kg i.v., 24 hr after treatment", "result": 142.2, "unit": "mg/dL"}, {"measurement": "Blood Glucose Concentration", "setting": "[5]; 40 mg/kg i.v., 48 hr after treatment", "result": 229.4, "unit": "mg/dL"}, {"measurement": "Blood Glucose Concentration", "setting": "[5]; 60 mg/kg i.v., 0 hr after treatment", "result": 68.2, "unit": "mg/dL"}, {"measurement": "Blood Glucose Concentration", "setting": "[5]; 60 mg/kg i.v., 2 hr after treatment", "result": 88.4, "unit": "mg/dL"}, {"measurement": "Blood Glucose Concentration", "setting": "[5]; 60 mg/kg i.v., 4 hr after treatment", "result": 72.4, "unit": "mg/dL"}, {"measurement": "Blood Glucose Concentration", "setting": "[5]; 60 mg/kg i.v., 7 hr after treatment", "result": 92.1, "unit": "mg/dL"}, {"measurement": "Blood Glucose Concentration", "setting": "[5]; 60 mg/kg i.v., 10 hr after treatment", "result": 115.7, "unit": "mg/dL"}, {"measurement": "Blood Glucose Concentration", "setting": "[5]; 60 mg/kg i.v., 24 hr after treatment", "result": 162.6, "unit": "mg/dL"}, {"measurement": "Blood Glucose Concentration", "setting": "[5]; 60 mg/kg i.v., 48 hr after treatment", "result": 242.3, "unit": "mg/dL"}, {"measurement": "Blood Glucose Concentration", "setting": "[5]; 80 mg/kg i.v., 0 hr after treatment", "result": 70.5, "unit": "mg/dL"}, {"measurement": "Blood Glucose Concentration", "setting": "[5]; 80 mg/kg i.v., 2 hr after treatment", "result": 90.3, "unit": "mg/dL"}, {"measurement": "Blood Glucose Concentration", "setting": "[5]; 80 mg/kg i.v., 4 hr after treatment", "result": 68.6, "unit": "mg/dL"}, {"measurement": "Blood Glucose Concentration", "setting": "[5]; 80 mg/kg i.v., 7 hr after treatment", "result": 93.7, "unit": "mg/dL"}, {"measurement": "Blood Glucose Concentration", "setting": "[5]; 80 mg/kg i.v., 10 hr after treatment", "result": 123.5, "unit": "mg/dL"}, {"measurement": "Blood Glucose Concentration", "setting": "[5]; 80 mg/kg i.v., 24 hr after treatment", "result": 178.7, "unit": "mg/dL"}, {"measurement": "Blood Glucose Concentration", "setting": "[5]; 80 mg/kg i.v., 48 hr after treatment", "result": 264.8, "unit": "mg/dL"}, {"measurement": "NOAEL", "setting": "[6]", "result": 20, "unit": "mg/kg"}, {"measurement": "solubility", "setting": "[7]", "result": 40, "unit": "mg/mL"}]}
